One assay deals with SR. The assay can be described thus: CCK-8 proliferation, SR. The class given is cell-based, Human. Conditions: Homo sapiens, SR cells, read-out: Inhibitory activity (IC50, nM) on tumor cell proliferation, SR. As for the experimental part:
(§1) The tumor cells used herein were cultured in a cell culture medium listed in table A1 at 37°C in an incubator with 5% CO2. Prior to experimentation, all cell lines used were correctly identified by STR profiling, and tested negative for mycoplasma contamination using a mycoplasma detection kit through routine screenings. Table A1. Tumor cells and cell culture medium used in the present disclosure
(§2) IC50 values of the compounds of the present disclosure (including the compounds in Table 1, and compounds of examples) were measured using the Meilun Cell Counting Kit-8 kit from Dalian Meilun Biotech Co., Ltd. Assay details are as follows: tumor cells were seeded in a 96-well plate at a density listed in Table A2. After 24h, 100 µL of the inoculated cells were treated with 0.5µL of the compounds of the present disclosure (including the compounds in Tables 1 and 2, and compounds of examples) at 10 different successively decreasing concentrations (starting at the highest concentration of 10µM; 5-fold serial dilutions). After the cells were treated with the compounds of the present disclosure for a period of time, the cell viability detection reagent was added to the culture medium for cell viability assessment according to the instructions provided with the CCK-8 kit. […] The growth inhibition of the compounds of the present disclosure on cells was plotted by Prism Graphpad software, and the IC50 values of the compounds of the present disclosure were calculated therefrom. […] Seeding protocol and treatment time for tumor cells

The next assay has as its system MM.1S. The assay can be described thus: CCK-8 proliferation, MM.1S. It counts as cell-based. The note with it: Homo sapiens, MM1.S, MM.1S cells, read-out: Inhibitory activity (IC50, nM) on tumor cell proliferation, MM.1S. The method, then:
as §1, §2

Another assay concerns MCF7. The experiment in a line: CCK-8 proliferation, MCF7 (MCF-7). Conditions: Homo sapiens, MCF7; Table B6, compounds designed based on the ALK inhibitors; MCF-7 cells; read-out: Inhibitory activity (IC50, nM) on tumor cell proliferation, MCF-7. It counts as cell-based. As for the experimental part: as §1, §2
The test system of the next assay is H1975. The assay can be described thus: CCK-8 proliferation, NCI-H1975 (H1975). It counts as cell-based, Human. The note with it: Homo sapiens, NCI-H1975; Table B6, compounds designed based on the ALK inhibitors; H1975 cells; read-out: Inhibitory activity (IC50, nM) on tumor cell proliferation, H1975. The gist of the method:
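Tumor cells were cultured at 37°C with 5% CO2, seeded, and after 24h treated with compounds at 10 concentrations starting at 10µM (5-fold serial dilutions).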

The subject of the next assay is H2228. The assay can be described thus: CCK-8 proliferation, NCI-H2228 (H2228). Conditions: Homo sapiens, NCI-H2228; Table B6, compounds designed based on the ALK inhibitors; H2228 cells; read-out: Inhibitory activity (IC50, nM) on tumor cell proliferation, H2228. It counts as cell-based. As for the experimental part: as §1, §2
Setting [1] is: Table B10, compounds designed based on the IRAK4 inhibitors.
Where [2] appears, read: Table B6, compounds designed based on the ALK inhibitors.

Read-outs that look alike come from different tables or passages of the source.

Consider `O=C1CCC(c2ccc(CN3CCN(Cc4ccc5c(c4)nc(NC(=O)c4cccc(C(F)(F)F)c4)n5[C@H]4CC[C@@H](CO)CC4)CC3)cc2)C(=O)N1` (some centres unmarked) [GT-04978, N-(5-((4-(4-(2,6-dioxopiperidin-3-yl)benzyl)piperazin-1-yl)methyl)-1-((1s,4s)-4-(hydroxymethyl)cyclohexyl) -1H-benzo[d]imidazol-2-yl)-3-(trifluoromethyl)benzamide], for which the IC50 in the assay with SR (setting [1]) is 100 to 500 nM; with MM.1S (setting [1]), 500 to 1000 nM.
As to `CCc1cc2c(cc1N1CCC(N3CCN(Cc4ccc(N5CCC(=O)NC5=O)cn4)CC3)CC1)C(C)(C)c1[nH]c3cc(C#N)ccc3c1C2=O` [GT-07311, 8-(4-(4-((5-(2,4-dioxotetrahydropyrimidin-1(2H)-yl)pyridin-2-yl)methyl)piperazin-1-yl)piperidin-1-yl)-9-ethyl-6,6-dimethyl-11-oxo-6,11-dihydro-5H-benzo[b]carbazole-3-carbonitrile], the IC50 lay within 1 to 10 nM in the assay with SR (setting [2]); 500 to 1000 nM in the assay with MM.1S (setting [2]); 500 to 1000 nM with MCF7; 500 to 1000 nM in the assay on H1975; 50 to 100 nM in the assay on H2228.
On to `Cc1cc(Nc2ncc(Cl)c(Nc3ccccc3S(=O)(=O)C(C)C)n2)c(OC(C)C)cc1C1CCN(Cc2cncc(N3CCC(=O)NC3=O)c2)CC1` [GT-07597, 1-(5-((4-(4-((5-chloro-4-((2-(isopropylsulfonyl)phenyl)amino)pyrimidin-2-yl)amino)-5-isopropoxy-2-methylphenyl)piperidin-1-yl)methyl)pyridin-3-yl)dihydropyrimidine-2,4(1H,3H)-dione], for which the IC50 with SR (setting [2]) fell in the range of 10 to 50 nM; with MM.1S (setting [2]), 500 to 1000 nM; in the assay with MCF7 it was 500 to 1000 nM; in the assay on H2228, 50 to 100 nM.
Take `Cc1cc(Nc2ncc(Cl)c(Nc3ccccc3S(=O)(=O)C(C)C)n2)c(OC(C)C)cc1C1CCN(Cc2ccnc(C3CCC(=O)NC3=O)c2)CC1` (centres unmarked) [GT-07599, 3-(4-((4-(4-((5-chloro-4-((2-(isopropylsulfonyl)phenyl)amino)pyrimidin-2-yl)amino)-5-isopropoxy-2-methylphenyl)piperidin-1-yl)methyl)pyridin-2-yl)piperidine-2,6-dione]: the IC50 in the assay on SR (setting [2]) fell in the range of 10 to 50 nM; in the assay with MM.1S (setting [2]) it was 500 to 1000 nM; in the assay on MCF7 it was 100 to 500 nM; with H2228, 100 to 500 nM.
Take `Cc1cc(Nc2ncc(Cl)c(Nc3ccccc3S(=O)(=O)C(C)C)n2)c(OC(C)C)cc1C1CCN(Cc2cncc(C3CCC(=O)NC3=O)c2)CC1` (centres unmarked) [GT-07601, 3-(5-((4-(4-((5-chloro-4-((2-(isopropylsulfonyl)phenyl)amino)pyrimidin-2-yl)amino)-5-isopropoxy-2-methylphenyl)piperidin-1-yl)methyl)pyridin-3-yl)piperidine-2,6-dione]: the IC50 in the assay with SR (setting [2]) fell in the range of 10 to 50 nM; with MM.1S (setting [2]), 500 to 1000 nM; in the assay with MCF7, 100 to 500 nM; in the assay on H2228, 10 to 50 nM.
For `COc1cc(N2CCC(N3CCN(Cc4ccc(N5CCC(=O)NC5=O)cc4)CC3)CC2)ccc1Nc1ncc(Cl)c(Nc2ccccc2P(C)(C)=O)n1` [GT-07603, 1-(4-((4-(1-(4-((5-chloro-4-((2-(dimethylphosphoryl)phenyl)amino)pyrimidin-2-yl)amino)-3-methoxyphenyl)piperidin-4-yl)piperazin-1-yl)methyl)phenyl)dihydropyr imidine-2,4(1H,3H)-dione], the IC50 lay in the range of 10 to 50 nM with SR (setting [2]); 500 to 1000 nM in the assay on MM.1S (setting [2]); 100 to 500 nM with MCF7; 100 to 500 nM in the assay on H1975; 10 to 50 nM with H2228.
`CCc1cc2c(cc1N1CCC(N3CCN(Cc4cncc(C5CCC(=O)NC5=O)c4)CC3)CC1)C(C)(C)c1[nH]c3cc(C#N)ccc3c1C2=O` (centres unmarked) [GT-07706, 8-(4-(4-((5-(2,6-dioxopiperidin-3-yl)pyridin-3-yl)methyl)piperazin-1-yl)piperidin-1-yl)-9-ethyl-6,6-dimethyl-11-oxo-6,11-dihydro-5H-benzo[b]carbazole-3-carbonitrile]: the IC50 lay within 1 to 10 nM with SR (setting [2]); 500 to 1000 nM in the assay with MM.1S (setting [2]); 500 to 1000 nM in the assay on MCF7; 500 to 1000 nM with H1975; 50 to 100 nM in the assay with H2228.

These data come from patent publication EP4678638A1, “NEW E3 UBIQUITIN LIGASE LIGAND, PROTEIN DEGRADATION AGENT AND USE THEREOF” (priority 2023, dated 2024).
